Results on 69 compounds are retold here after patent publication US9067949B2, “Benzofuro[3,2-c] pyridines and related analogs as serotonin sub-type 6 (5-HT6) modulators for the treatment of obesity, metabolic syndrome, cognition and schizophrenia” (Albany Molecular Research, Inc., priority 2011, dated 2015).

One may read the Ki as a dissociation constant, usually derived from enzyme kinetics or from competition with a known ligand.

human 5-HT6 receptor, sequence (P50406 whole entry): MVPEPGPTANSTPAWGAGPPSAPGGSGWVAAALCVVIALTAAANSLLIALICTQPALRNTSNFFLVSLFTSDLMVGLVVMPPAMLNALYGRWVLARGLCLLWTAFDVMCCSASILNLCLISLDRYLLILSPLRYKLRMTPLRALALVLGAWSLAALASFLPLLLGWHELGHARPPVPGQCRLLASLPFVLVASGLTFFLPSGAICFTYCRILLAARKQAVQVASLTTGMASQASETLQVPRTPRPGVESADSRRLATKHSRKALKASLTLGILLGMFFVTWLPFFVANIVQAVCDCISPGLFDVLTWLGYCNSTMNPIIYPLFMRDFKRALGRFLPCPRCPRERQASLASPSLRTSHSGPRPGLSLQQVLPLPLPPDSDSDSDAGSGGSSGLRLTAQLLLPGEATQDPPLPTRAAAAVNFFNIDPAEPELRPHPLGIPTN

The assay addresses human 5-HT6 receptor (Homo sapiens (Human), UniProt P50406). Briefly: 5-HT6 radioligand binding assay (SPA format, [N-methyl-3H]-LSD). The settings on record: human 5-HT6 receptor membranes, 10 nM [N-methyl-3H]-LSD; Ki by Cheng-Prusoff; read-out: human 5HT6 Ki. As for the experimental part:
The relative affinities of the various compounds for the 5-HT6 receptor were measured in a radioligand binding assay, using a scintillation proximity assay (SPA) format.
For binding analysis vs. the human receptor, samples were incubated in 50 mM Tris-HCl, pH 7.5, 5 mM MgCl2, 1 mM EDTA (4% DMSO final) with 10 nM [N-methyl-^3H]-LSD (Perkin Elmer), 2.5 ng of human 5-HT6 receptor membranes (Millipore) and 50 μg SPA beads (PVT-PEI-WGA, GE Healthcare) per well in a final volume of 0.2 mL. […] Binding reactions were performed in PicoPlate96 microtiter plates (Perkin Elmer) by consecutively adding 50 μL of each competing compound or buffer, SPA beads, radioligand and 5-HT6 receptor membranes. After an overnight incubation at room temperature on a Nutator mixer, plates were centrifuged for 15 min at 1,500 rpm, followed by incubation in the dark for 10 min. […] Total binding control contained compound dilution buffer only; nonspecific binding is determined in the presence of 100 μM 5-hydroxytryptamine. Specific binding was determined by subtracting nonspecific binding from total binding.
All experiments were performed in duplicate using ten concentrations of competing ligand, with clozapine included as a control in every run. IC50 values were determined from specific binding data using XLfit4.1 curve fitting software from IDBS Ltd. The inhibition constant (Ki) was calculated using the Cheng-Prusoff equation: (Ki=IC50/(1+(L/KD)), where L=concentration of radioligand in the assay, and KD=affinity of the radioligand for the receptor.
Turning to `O=S(=O)(c1ccc(C2CCO2)cc1)c1cc(Cl)c2oc3c(c2c1)CNCC3` (stereo not drawn) [Example 126], the Ki was found to be 10 nM.
To `O=S(=O)(c1ccc(F)c(F)c1)c1cc(Cl)c2oc3c(c2c1)CNCC3` [Example 127] belongs 4 nM.
To `O=S(=O)(c1ccc(F)cc1)c1cc(Cl)c2oc3c(c2c1)CNCC3` [Example 128] belongs 3 nM.
With `O=S(=O)(c1cc(F)cc(F)c1)c1cc(Cl)c2oc3c(c2c1)CNCC3` [Example 129], the Ki came out at 9.9 nM.
To `O=S(=O)(c1cc(Cl)cc(Cl)c1)c1cc(Cl)c2oc3c(c2c1)CNCC3` [Example 130] belongs 6 nM.
For `O=S(=O)(c1ccc(C(O)C(F)(F)F)cc1)c1cc(Cl)c2oc3c(c2c1)CNCC3` (stereo not drawn) [Example 131] the value was 7.6 nM; for `O=S(=O)(c1cccc(C(O)C(F)(F)F)c1)c1cc(Cl)c2oc3c(c2c1)CNCC3` (stereo not drawn) [Example 132], 3.3 nM.
For `O=S(=O)(c1cc(Cl)c2oc3c(c2c1)CNCC3)c1csc2ccccc12` [Example 133] the value was 0.26 nM; for `O=S(=O)(c1ccc2sccc2c1)c1cc(Cl)c2oc3c(c2c1)CNCC3` [Example 134], 0.55 nM; for `CC(O)c1ccccc1S(=O)(=O)c1cc(Cl)c2oc3c(c2c1)CNCC3` (stereo not drawn) [Example 135], 20 nM.
As to `CC(O)c1cccc(S(=O)(=O)c2cc(Cl)c3oc4c(c3c2)CNCC4)c1` (stereo not drawn) [Example 136], the Ki stood at 3 nM.
As to `CC(O)c1ccc(S(=O)(=O)c2cc(Cl)c3oc4c(c3c2)CNCC4)cc1` (stereo not drawn) [Example 137], the Ki is 5.6 nM.
To `C[C@H](O)c1cccc(S(=O)(=O)c2cc(Cl)c3oc4c(c3c2)CNCC4)c1` [Example 138] belongs 5.1 nM; to `C[C@@H](O)c1cccc(S(=O)(=O)c2cc(Cl)c3oc4c(c3c2)CNCC4)c1` [Example 139], 2.7 nM; to `C[C@H](O)c1ccc(S(=O)(=O)c2cc(Cl)c3oc4c(c3c2)CNCC4)cc1` [Example 140], 16 nM.
As to `C[C@@H](O)c1ccc(S(=O)(=O)c2cc(Cl)c3oc4c(c3c2)CNCC4)cc1` [Example 141], the Ki worked out at 3.1 nM.
For `CC(C)(O)c1ccccc1S(=O)(=O)c1cc(Cl)c2oc3c(c2c1)CNCC3` [Example 142] the value was 25 nM; for `O=S(=O)(c1ccc2[nH]ccc2c1)c1cc(Cl)c2oc3c(c2c1)CNCC3` [Example 143], 0.13 nM; for `CS(=O)(=O)N1CCc2oc3c(Cl)cc(S(=O)(=O)c4ccccc4)cc3c2C1` [Example 144], 492 nM.
To `CN(C)CC(=O)N1CCc2oc3c(Cl)cc(S(=O)(=O)c4ccccc4)cc3c2C1` [Example 145] belongs 66 nM.
For `O=S(=O)(c1ccccc1)c1cc(Cl)c2oc3c(c2c1)CN(CCO)CC3` [Example 146] the value was 1.6 nM; for `CC(C)(O)CN1CCc2oc3c(Cl)cc(S(=O)(=O)c4ccccc4)cc3c2C1` [Example 147], 1.2 nM.
On to `CN(C)C(=O)CN1CCc2oc3c(Cl)cc(S(=O)(=O)c4ccccc4)cc3c2C1` [Example 148], for which the Ki stood at 45 nM.
As for `COCCN1CCc2oc3c(Cl)cc(S(=O)(=O)c4ccccc4)cc3c2C1` [Example 149], the Ki stood at 1.6 nM.
For `O=S(=O)(c1ccccc1)c1cc(Cl)c2oc3c(c2c1)CN(C1COC1)CC3` [Example 150] the value was 76 nM; for `CC(O)CN1CCc2oc3c(Cl)cc(S(=O)(=O)c4ccccc4)cc3c2C1` (stereo not drawn) [Example 151], 1.7 nM; for `CC(CO)N1CCc2oc3c(Cl)cc(S(=O)(=O)c4ccccc4)cc3c2C1` (stereo not drawn) [Example 152], 3.4 nM.
For `O=S(=O)(c1cc(Cl)c2oc3c(c2c1)CNCC3)c1ccccc1C(F)(F)F` [Example 153] the value was 6.1 nM; for `O=S(=O)(c1ccc(C2CCOC2)cc1)c1cc(Cl)c2oc3c(c2c1)CNCC3` (stereo not drawn) [Example 154], 5.6 nM.
For `CC(=O)N1CCc2oc3c(Cl)cc(S(=O)(=O)c4cn(C)c5ccccc45)cc3c2C1` [Example 155] the value was 167 nM.
Turning to `O=S(=O)(c1ccc2c(c1)COC2)c1cc(Cl)c2oc3c(c2c1)CNCC3` [Example 156], the Ki was 7.6 nM.
To `C=C(C)c1cccc(S(=O)(=O)c2cc(Cl)c3oc4c(c3c2)CNCC4)c1` [Example 157] belongs 0.66 nM; to `COc1cc(S(=O)(=O)c2ccc3c(c2)CCOC3)cc2c3c(oc12)CCNC3` [Example 158], 0.48 nM.
As for `COc1cc(S(=O)(=O)c2ccccc2CO)cc2c3c(oc12)CCNC3` [Example 159], the Ki is 1.5 nM.
As for `COc1cc(S(=O)(=O)c2cccc(OC(F)F)c2)cc2c3c(oc12)CCNC3` [Example 160], the Ki was 0.11 nM.
With `COc1cc(S(=O)(=O)c2ccc(F)c(F)c2)cc2c3c(oc12)CCNC3` [Example 161], the Ki is 0.32 nM.
On to `COc1cc(S(=O)(=O)c2ccc(C(F)(F)F)cc2)cc2c3c(oc12)CCNC3` [Example 162], for which the Ki came to 0.49 nM.
For `COc1cc(S(=O)(=O)c2ccccc2F)cc2c3c(oc12)CCNC3` [Example 163] the value was 0.19 nM; for `COc1cc(S(=O)(=O)c2ccc(OC(F)F)cc2)cc2c3c(oc12)CCNC3` [Example 164], 0.4 nM.
As for `COc1cc(S(=O)(=O)c2ccc(OC(F)(F)F)cc2)cc2c3c(oc12)CCNC3` [Example 165], the Ki is 1.9 nM.
To `COc1cc(S(=O)(=O)c2cccc(F)c2)cc2c3c(oc12)CCNC3` [Example 166] belongs 0.2 nM; to `COc1cc(S(=O)(=O)c2cccc(C(F)(F)F)c2)cc2c3c(oc12)CCNC3` [Example 167], 0.13 nM; to `COc1cc(S(=O)(=O)c2cccc(OC(F)(F)F)c2)cc2c3c(oc12)CCNC3` [Example 168], 0.19 nM.
To `COc1cc(S(=O)(=O)c2ccc(F)cc2)cc2c3c(oc12)CCNC3` [Example 169] belongs 0.75 nM.
For `COc1cc(S(=O)(=O)c2ccc(C(C)O)cc2)cc2c3c(oc12)CCNC3` (stereo not drawn) [Example 170] the value was 2.9 nM; for `COc1cc(S(=O)(=O)c2ccc([C@H](C)O)cc2)cc2c3c(oc12)CCNC3` [Example 171], 8.6 nM.
As to `COc1cc(S(=O)(=O)c2ccc([C@@H](C)O)cc2)cc2c3c(oc12)CCNC3` [Example 172], the Ki came to 1.9 nM.
To `COc1cc(S(=O)(=O)c2cccc(C(C)O)c2)cc2c3c(oc12)CCNC3` (stereo not drawn) [Example 173] belongs 0.6 nM.
As to `COc1cc(S(=O)(=O)c2cccc([C@@H](C)O)c2)cc2c3c(oc12)CCNC3` [Example 174], the inhibitory constant (Ki) turned out to be 0.69 nM.
For `COc1cc(S(=O)(=O)c2cccc([C@H](C)O)c2)cc2c3c(oc12)CCNC3` [Example 175] the value was 1.2 nM; for `COc1cc(S(=O)(=O)c2ccc(C(C)(C)O)cc2)cc2c3c(oc12)CCNC3` [Example 176], 0.74 nM; for `COc1cc(S(=O)(=O)c2cccc(C(C)(C)O)c2)cc2c3c(oc12)CCNC3` [Example 177], 0.35 nM.
To `COc1cc(S(=O)(=O)c2cccc(C(O)C(F)(F)F)c2)cc2c3c(oc12)CCNC3` (stereo not drawn) [Example 178] belongs 0.32 nM; to `COc1cc(S(=O)(=O)c2ccc(C3CCOC3)cc2)cc2c3c(oc12)CCNC3` (stereo not drawn) [Example 180], 2.2 nM; to `COc1cc(S(=O)(=O)c2cn(C)c3ccccc23)cc2c3c(oc12)CCNC3` [Example 183], 0.16 nM.
In the case of `COc1cc(S(=O)(=O)c2ccc3sccc3c2)cc2c3c(oc12)CCNC3` [Example 184], the Ki was 0.16 nM.
To `COc1cc(S(=O)(=O)c2csc3ccccc23)cc2c3c(oc12)CCNC3` [Example 185] belongs 0.1 nM; to `COc1cc(S(=O)(=O)c2cc(F)cc(F)c2)cc2c3c(oc12)CCNC3` [Example 186], 0.33 nM; to `COc1cc(S(=O)(=O)c2ccsc2)cc2c3c(oc12)CCNC3` [Example 187], 0.27 nM.
Take `COc1cc(S(=O)(=O)c2cc(F)cc(Cl)c2)cc2c3c(oc12)CCNC3` [Example 188]: the Ki came to 0.11 nM.
As to `COc1cc(S(=O)(=O)c2ccc(Cl)cc2)cc2c3c(oc12)CCNC3` [Example 189], the Ki stood at 0.28 nM.
Take `COc1cc(S(=O)(=O)c2cccc(Cl)c2)cc2c3c(oc12)CCNC3` [Example 190]: the Ki came to 0.05 nM.
For `COc1cc(S(=O)(=O)c2cc(Cl)cc(Cl)c2)cc2c3c(oc12)CCNC3` [Example 191] the value was 0.23 nM; for `COc1cc(S(=O)(=O)c2cccs2)cc2c3c(oc12)CCNC3` [Example 192], 0.17 nM.
For `COc1cc(S(=O)(=O)c2ccc3c(c2)COC3)cc2c3c(oc12)CCNC3` [Example 193] the value was 0.8 nM; for `Cc1cc(S(=O)(=O)c2ccccc2F)cc2c3c(oc12)CCNC3` [Example 194], 0.39 nM.
To `Cc1cc(S(=O)(=O)c2cccc(Cl)c2)cc2c3c(oc12)CCNC3` [Example 195] belongs 0.28 nM; to `Cc1cc(S(=O)(=O)c2ccc(Cl)cc2)cc2c3c(oc12)CCNC3` [Example 196], 1.1 nM; to `Cc1cc(S(=O)(=O)c2cc(F)cc(F)c2)cc2c3c(oc12)CCNC3` [Example 197], 1.3 nM.
